# Experimental data published in paper PMC4211885 (PLoS ONE, 2014).
# What was measured:
# [1] = test system: CFTR conductance (intracellular cAMP); experiment: cAMP detection by whole oocyte (CFTR) conductance in oocytes co-expressing CFTR and OA/TAMac; format: cell-based, Xenopus laevis; conditions: for Increase in cAMP levels (CFTR conductance): OA and TA at 100 µM or 1000 µM
# Text: It is also unlikely that the effects of tyramine at high concentration result from an increase in cAMP. It is common that octopaminergic GPCRs can couple through the canonical Gαs/cAMP pathway so we used co-expression of the Cystic Fibrosis Trans-membrane Conductance Regulator (CFTR) as a means of testing for increases in cAMP (see methods for more detail) [60]–[63].
# As a means of detecting rises in intracellular cAMP levels we tested oocytes co-expressing the CFTR channel and OA/TAMac. Heterologously expressed CFTR can be used as an extremely sensitive assay for intracellular cAMP in Xenopus oocytes. CFTR mediates a chloride-selective leak conductance that is activated by increases in intracellular cAMP [63]. Activity of CFTR can thus be used to indicate whether changes in cAMP correspond with ligand application [60]–[62]. Whole oocyte conductance was monitored using a step protocol and calculated from I/V plots. The command voltage was stepped from the holding potential to various levels (−10 mV to −55 mV in −5 mV increments) for 150 ms. The steady state current during each step was plotted against the command voltage and fit to a line using Clampfit 10 software (Fig. S7A). The slope of the line was taken as the conductance. To minimize the magnitude of the holding current between drug applications, oocytes expressing CFTR were typically held at −20 mV which is close to the typical chloride reversal potential. This was confirmed by the fact that the direct-current evoked by forskolin could appear inward or outward at −20 mV. Oocytes expressing either OA/TAMac alone or OA/TAMac and CFTR typically had resting membrane potentials between −20 mV and −30 mV (mean of −26±5 mV calculated from oocytes in Fig. S7) due to increased expression of endogenous chloride currents.
# (A) The measurement of whole oocyte conductance was done by plotting steady state current against the command voltage recorded during a step protocol. It is defined as the slope (I/V) of the linear least squares regression line. In the example shown tyramine (TA) causes no apparent change in whole oocyte conductance. Octopamine (OA) causes a small change compared to the adenylate cyclase activator forskolin (FSK). […] These cumulative data are from 20 OA/TAMac and CFTR-injected oocytes and 6 OA/TAMac -only injected oocytes. Conductance was measured as shown in A. Not all compounds were tested in all oocytes. Each response is treated as an independent sample. Concentrations of OA and TA were at 100 µM or 1000 µM, FSK was at 50 µM. Some points obtained at 3 minutes were grouped with the 4 minute responses. (C) The change in conductance (Δg) occurring within oocytes as determined by the difference between baseline and the indicated time points post-application of compound. […]
# [2] = molecular target: OA/TAMac receptor (Macrobrachium rosenbergii, UniProt D9U2B9); experiment: Agonist-evoked direct-current (ID) in Xenopus oocytes injected with OA/TAMac cRNA, two-electrode voltage clamp; format: cell-based; conditions: for ID response amplitude (mean ± s.d.): 10 µM, 10 second focal application, OA/TAMac and CFTR co-injected, n = 11 oocytes; for EC50: voltage clamped at −60 mV, approximate, estimated graphically from plot, read-out: EC50 of transmitter evoked direct-current (ID), normalized I/Imax; for Spearman rank-order correlation (rS) between rise rate and peak amplitude of evoked ID: all responses of the concentration series of Figure 3C
# Text: We used Xenopus oocytes to express the prawn OA/TAMac receptor by injection of synthetic cRNA. The injection of foreign RNA into Xenopus oocytes typically induces the expression of multiple native chloride and potassium channels. Ligand evoked currents resulting from modulation of these channels have been used extensively in the characterization of heterologously expressed GPCRs. Oocytes are typically voltage clamped at a constant membrane potential around −60 mV and deviations in holding potential are measured. We refer to currents measured in this way as direct-currents (ID) (after) in order to distinguish them from the voltage-evoked transient current (ICl-T) described later.
# Both flow rate and pulse duration were precisely controlled and comparisons were made relative to currents within single oocytes.
# To characterize the dose dependence of ID, series of single transmitters were applied to different individual oocytes injected with OA/TAMac. Oocytes were voltage clamped at −60 mV and tyramine, (+/−)-octopamine, or dopamine were applied using 30 second perfusion-switched applications (see methods for more details).
# Recordings were performed 1–3 days post-injection at room temperature (20–22°C). Currents were recorded under two-electrode voltage clamp using an Axoclamp 900a amplifier (Molecular Devices LLC, CA USA). A digidata 1440a analog to digital converter was used in conjunction with pCLAMP 10 software (Molecular Devices) for data acquisition and to generate voltage commands. For each step protocol or chemical application data were typically sampled at 5 KHz and filtered digitally at 1 KHz. For the duration of each experiment the current was also continuously sampled at 1 kHz using a separate minidigi 1A digitizer (Molecular Devices). Glass microelectrodes were pulled from filamented 1.2 mm thin wall borosilicate glass (World Precision Instruments, Sarasota, FL) using a Sutter Instruments P-97 puller. They were filled with 3 M KCl and had resistances of 0.8–2.0 MΩ. A silver chloride pellet immersed in 3 M KCl and connected to the bath via a 3% agar bridge made with 3 M KCl was used as the reference electrode.
# Oocytes were continuously perfused at 1.5 mL/min either with ND 96 or test compounds dissolved in ND 96. Two types of application were used over the course of this study, a perfusion-switch or a focal application. In all cases solutions were delivered through a gravity fed system and switched using a computer controlled bank of pinch valves. Flow rate was regulated with a manual screw-type pinch valve.
# For focal application a triple barrel pipette with three parallel independently switched channels was positioned about 1 mm from the surface of the oocyte, up-stream of a cross flow, at an approximate angle of 45 degrees (schematic shown in Fig. S8). Drugs were focally applied during continuous perfusion with ND 96.
# In experiments where more than three drugs or concentrations were tested a precisely controlled 30 s perfusion-switch was used. Up to eight channels were connected to the bath via an 8-way manifold. There was an approximately 6–7 s delay for solutions to traverse the dead volume between the manifold and the bath.
# [3] = 30 second perfusion-switched applications, −60 mV
# Sequence of OA/TAMac receptor (D9U2B9 entry or part of it): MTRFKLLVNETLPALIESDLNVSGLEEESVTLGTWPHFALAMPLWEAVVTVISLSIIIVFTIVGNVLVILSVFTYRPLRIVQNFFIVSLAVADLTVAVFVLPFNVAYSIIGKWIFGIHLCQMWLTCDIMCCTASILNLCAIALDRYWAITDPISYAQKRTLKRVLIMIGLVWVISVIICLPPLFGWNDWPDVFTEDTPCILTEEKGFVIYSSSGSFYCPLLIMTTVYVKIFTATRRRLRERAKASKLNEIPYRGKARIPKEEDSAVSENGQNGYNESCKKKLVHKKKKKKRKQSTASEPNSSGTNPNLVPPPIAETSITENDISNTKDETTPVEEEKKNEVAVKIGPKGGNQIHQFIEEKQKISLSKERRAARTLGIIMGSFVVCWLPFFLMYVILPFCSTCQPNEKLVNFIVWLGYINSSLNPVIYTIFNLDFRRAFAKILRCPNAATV
Compound,Increase in cAMP levels (CFTR conductance) [1],ID response amplitude (mean ± s.d.) ([2]; −60 mV) [nA],"Mean ID response amplitude in the agonist set ([2]; 50 µM, 30 second perfusion-switch, n = 6, standard deviation 32 nA) [nA]",EC50 ([2]; 30 second perfusion-switch) [µM],"Concentration at which evoked inward currents became visible/apparent [2, 3]",Spearman rank-order correlation (rS) between rise rate and peak amplitude of evoked ID [2],"Mean change in conductance (Δg) within oocytes ([1]; compiled from 12 oocytes, s.d. = 1.72 µS, high conductance outlier excluded) [µS]","Concentration at which the response reached maximum amplitude [2, 3]"
"NCC(O)c1ccc(O)cc1 (racemic) [octopamine, (+/−)-octopamine]",neither octopamine nor tyramine produced significant increases,75±55,119,~21,around 1 µM,0.93,–,–
NCCc1ccc(O)cc1 [tyramine],neither octopamine nor tyramine produced significant increases,229±152,–,~0.2,around 0.1 µM,0.52,0.30,around 10 µM
